From a melting point compilation (Tetko et al.; mined from patent text by program, amines drawn as free bases though some values may be those of a salt)

Row | SMILES | melting point [°C]
1 | Cc1nc(N2CCN(Cc3ccc4nsnc4c3)C2=O)sc1C(=O)NCc1cccnc1 | 105 to 107
2 | COc1cc(COc2nn(-c3ccccc3)cc2C(=O)O)ccc1OCc1nc(-c2ccco2)oc1C | 184 to 185
3 | COc1ccc(C#Cc2cc(Cl)cc3c2OC(C(F)(F)F)C(C(=O)O)=C3)cc1 (stereo not given) | 218 to 219
4 | CCN(C)c1cc(Br)cc(S(=O)(=O)c2ccc(N)cc2)c1 | 162 to 164
5 | CCCCC[C@H]1CC[C@H](C(=O)Oc2ccc(OC(F)F)cc2)CC1 | 54
6 | O=C(CN(Cc1ccc(OCc2ccccc2)cc1)C(=O)[C@H](Cc1c[nH]cn1)NC(=O)OCc1ccccc1)NCCCCc1ccccc1 | 58 to 61
7 | CCOC(=O)C1(NS(=O)(=O)c2ccc3c(Cl)cnc(Cl)c3c2)CCC1 | 123 to 125
8 | COc1cc(COc2nn(-c3ccccc3)cc2C#N)ccc1OCc1nc(-c2ccccc2)oc1C | 174 to 175
9 | COc1ccc(COc2nc(C3CC3)c3cc(-c4cccc(Cl)c4)ccc3n2)cc1 | 158 to 159
10 | Cn1c(=O)oc2cc(N3C[C@H](C(N)=O)OC3=O)ccc21 | > 260
11 | CSCc1nn(CCC#N)c(O)c1C | 98
12 | CCC(C)COc1ccc(-c2ccc(OS(=O)(=O)c3ccc(C)cc3)cc2)cc1 (stereo not given) | 94 to 97
13 | O=[N+]([O-])C=Cc1cnc2c(OCc3ccccc3)cccn12 | 204
14 | CCCCN(CCCC)C(=O)c1c(C)n(CCc2ccccc2)c2cc(C(=O)CC)c(O)c(CN3CCCCC3)c12 | 111 to 112
15 | CSc1nc(Cl)c(C#N)s1 | 83 to 87
16 | O=c1oc2ccc(Cl)cc2c(O)c1CCO | 185 to 186
17 | OCC(CBr)(CBr)CBr | 67 to 69
18 | N#Cc1ccc(C#CCN2CCc3nc(N)sc3CC2)cc1 | 174 to 176
19 | O=P(O)(O)C(O)(CCC1CCCCN1)P(=O)(O)O (stereo not given) | 193 to 195
20 | Cn1cc(-c2cnc3ccc(Br)cc3n2)cn1 | 172
21 | NC1=C2C(=Nc3ccccc3S2(=O)=O)c2ccccc2C1=O | 264 to 266
22 | CCCCN(CCCC)c1ccc(C=CC2=CC(=CC=CC3=C(C#N)C(=C(C#N)C#N)OC3(C)C(F)(F)F)CC(C)(C)C2)c(OC)c1 (stereo not given) | 196 to 201

Row | SMILES | melting point [°C]
23 | Cn1ccnc1CNC(=O)c1[nH]c2ccc(Cl)cc2c1S(=O)(=O)c1cccc(Cl)c1 | 232 to 234
24 | COc1ccnc(CCc2nc3cc(-c4ccc(S(=O)(=O)N(C)C)cc4)cnc3[nH]2)c1 | 217 to 218
25 | CC(C)C(=O)N1CCC(c2nc3cc(-c4ccc(-n5cnnn5)cc4F)ccc3o2)CC1 | 190 to 194
26 | CCc1nnc2n1N=C1c3cc(OC)c(OC)cc3CC1S2 (stereo not given) | 212
27 | Cc1noc(C)c1-c1cc(OC2SCC(O)C(O)C2O)ccn1 (stereo not given) | 143 to 147
28 | O=C1CCC(N2C(=O)c3ccc(CNC(=O)Nc4ccc(Cl)c(Cl)c4)cc3C2=O)C(=O)N1 (stereo not given) | 290 to 292
29 | CCOC(=NC(=O)c1ccc(Br)cc1)N1Cc2ccccc2-c2ccccc2C1 | 116 to 117
30 | N[C@@H](Cc1ccccc1)C(=O)N1CCC[C@H]1C(=O)OCc1ccccc1 | 120 to 121
31 | Cc1nc2c(N)nc3ccccc3c2n1CCCOCC#Cc1ccccc1 | 160 to 162
32 | Cc1ccccc1C=C(C#N)C#N | 105 to 106
33 | CC1=NC(=NOC(=O)N(C)C)SC1(C)C | 108 to 110
34 | COC1CSC2=C(SC1)C(OC(=O)N1CCN(C)CC1)N(c1ccc3ccc(Cl)cc3n1)C2=O (stereo not given) | 228
35 | CCCCCCCCCCOc1ccc(OCc2ccccc2)c(C(=O)N(CC(=O)OCC)CC(=O)OCC)c1 | 37 to 38
36 | c1ccc2cc(CSCc3ccc4ccccc4c3)ccc2c1 | 119 to 121
37 | Oc1ccc2nc(-c3cccc(Br)c3)oc2c1 | 248
38 | O=C(Nc1ccc2ccc(Cl)nc2n1)Oc1ccccc1 | 208
39 | C1=CC2(C3OCCO3)OC1c1ccccc12 (stereo not given) | 48 to 49
40 | CCc1nc(-c2ncn3c4ccccc4c(=O)n(C)c23)no1 | 199 to 202
41 | Cc1ccc(-c2cc(O)c3[nH]c(=O)ccc3c2)c(C)n1 | 276 to 277
42 | CC#CC1CCC(c2ccc(C3CCC(CCC)CC3)cc2)CC1 (stereo not given) | 134
43 | CCN(CC)c1nc2ncnn2c2c1cnc1c2cnn1CC | 215 to 217
44 | CCCSc1cc(S(N)(=O)=O)c(N)cc1Cl | 109 to 111

Row | SMILES | melting point [°C]
45 | CC(c1oc2ccccc2c(=O)c1-c1cccc(F)c1)n1nc(-c2cccc(OC(F)F)c2)c2c(N)ncnc21 (stereo not given) | 176 to 179
46 | COc1cc(-c2csc(Br)c2Br)cc2oc(=O)c(C)c(C)c12 | 194 to 196
47 | CCN1C(=O)c2cscc2Nc2ccccc21 | 175 to 177
48 | COC(=O)c1ccc(-c2coc3ccc(-c4nnc(C)o4)cc23)c(Cl)c1 | 171 to 172
49 | COCCN(C)Cc1ccnc2c(NC(=O)c3c(Cl)cccc3Cl)cccc12 | 128 to 134
50 | O=c1c2[nH]c(Cl)nc2n(CC2CC2)c(=O)n1CC1CC1 | 220
51 | Cn1cc(C2=C(c3cn(CCCS(C)(=O)=O)c4ccccc34)C(=O)NC2=O)c2ccccc21 | 225 to 227
52 | CS(=O)(=O)Nc1cc(-c2nc3ccccn3c2Br)c(F)cc1F | 202
53 | CCCCCCCNC(=O)c1ccc(CCCC)cc1 | 37 to 38
54 | NC[C@H]1CCCN1C(c1ccccc1)(c1ccccc1)c1ccccc1 | 100
55 | O=P(ONc1ccccc1)(ONc1ccccc1)Oc1ccccc1 | 176 to 178
56 | COc1ccc(Cn2cnc3c(-c4ccco4)nc(C4CC4)nc32)cc1 | 115 to 116
57 | CS(=O)(=O)c1ccc(-c2cnn(-c3ccc(F)cc3)c(=O)c2COc2ccccc2)cc1 | 42 to 75
58 | CC1(C)CCC(C)(C)c2cc(OCc3ccc(C=O)cc3)ccc21 | 102 to 104
59 | COc1cc2nc(N3CCN(C(=O)C=Cc4ccc(Cl)c(Cl)c4)CC3)nc(N)c2cc1OC | 196 to 198
60 | COc1ccc(-c2ccc(COc3cccc4cc(NS(=O)(=O)C(F)(F)F)ccc34)c(F)c2)cc1 | 108 to 111
61 | Cc1cn(-c2ccc(Br)cc2C#N)cn1 | 166
62 | NC(=O)N1C(=O)C(C(=O)c2cccs2)c2cc(F)c(Cl)cc21 (stereo not given) | 220 to 221
63 | Oc1ccc(-c2cc3ccccc3[nH]2)c(O)c1 | 188
64 | CNC(=NC#N)NCCSCc1csc(NC(N)=NC(=O)c2ccccc2)n1 | 179 to 181
65 | COC(=O)C1(C)Cc2c([nH]c3ccc(OC)cc23)C(c2ccccc2)N1 (stereo not given) | 172 to 175
66 | O=C(Oc1cccc2c(-c3ccccc3)c3cccc(OC(=O)C4CCCCC4)c3c(OC(=O)C3CCCCC3)c12)C1CCCCC1 | 235

More lines, now with the values ahead:

Row | melting point [°C] | SMILES
67 | 126 to 128 | COC(=O)[C@H](Cc1c(Br)n(C(=O)OC(C)(C)C)c2cc(Br)c(OC)c(Br)c12)NC(C)=O
68 | 90 | COc1ccc(C(=O)CC(c2cccs2)C(C)(C)[N+](=O)[O-])cc1 (stereo not given)
69 | 58 to 59 | CC(C)(C)OC(=O)NOCCC(=O)Oc1c(F)c(F)c(F)c(F)c1F
70 | 129 to 131 | COc1cc2c3ccc(OC)c(OC)c3n(C(=O)c3ccc(C(C)(C)C)cc3)c2cc1OC
71 | 56 to 60 | CCOC(=O)CNCc1c(N)ccc(Cl)c1Cl
72 | 97 to 98 | CCOC(=O)C1=CC(OC)(OC)CCC1S(=O)(=O)Nc1ccc(F)cc1Cl (stereo not given)
73 | 99 to 102 | C[C@H](NC(=O)OC(C)(C)C)C(=O)C=[N+]=[N-]
74 | 147 to 149 | COC(=O)C(O)C(NCc1ccccc1)c1ccc([N+](=O)[O-])cc1 (stereo not given)
75 | 127 to 130 | CC(=O)CC(=O)N[C@@H](CC(=O)O)C(=O)O
76 | 119 to 120 | C/C(=C\c1ccc(C(=O)OC(C)C)cc1)c1ccc2c(c1)C(C)(C)CCC2(C)C
77 | 234 to 236 | CC(C)(C)C(NC(=O)c1cccc(I)c1)Nc1c(Nc2cccnc2)c(=O)c1=O (stereo not given)
78 | 50 to 53 | COC(=O)C(O)C(F)(F)F (stereo not given)
79 | > 200 | CCc1nc(C)c(/C=C(\NC(=O)c2ccc(C(=O)NCc3cccc(O)c3)cc2Cl)C(=O)OC)s1
80 | 137 to 138 | COc1cc(C(=O)C=Cc2cccnc2)cc(OC)c1OC
81 | 98.8 to 101 | CCOC(=O)C[C@H](O)COC(c1ccccc1)(c1ccccc1)c1ccccc1
82 | 97 to 98 | CCOC(=O)c1cnn2c1c(SC)nc1ccccc12
83 | 131 to 132 | C=CCOC(=O)Nc1cc(C(C)(C)C)[nH]n1

Row | melting point [°C] | SMILES
84 | 62.6 to 64 | [N-]=[N+]=C(C(=O)CCc1ccccc1)C(=O)CCc1ccccc1
85 | 89 to 90 | CC(C)Oc1ccc(NC(=S)NCc2ccoc2)cc1
86 | 101 to 103 | Cc1ccsc1C(=O)C(=CN(C)C)c1ccccc1[N+](=O)[O-]
87 | > 205 | Cc1c(=O)[nH]c(=O)n2cc(C(=O)O)sc12
88 | 139 to 143 | O=C1CN(NC(=O)NC(C(=O)O)c2ccccc2)C(=O)N1 (stereo not given)
89 | 144 to 145 | COC(=O)C1=C(C)NC(C)=C(C(=O)OC)C1C1CCC(C(=O)OC)C1 (stereo not given)
90 | 96 to 99 | CCCC[C@H](NC(=O)CC[C@H](C)CNC(=O)COc1ccccc1)C(=O)CS(=O)Cc1ccco1 (stereo not given in full)
91 | 63 to 64 | CC(C)(C)[Si](C)(C)OCCn1cc([N+](=O)[O-])cn1
92 | 148 to 160 | CC(=O)CCCCC(=O)Nc1ccc(CCC(=O)O)cc1
93 | 156 to 157 | Cc1cn(COC(CO)CO)c(=O)[nH]c1=O
94 | 150 to 153 | CCOC(=O)c1cn(C2CC2)c2nc(N3C[C@@H](CN(CC)C(=O)C(F)(F)F)[C@@H](F)C3)c(F)cc2c1=O (relative stereo)
95 | 207 to 209 | COC(=O)c1ccc(Cl)cc1NC(=O)CSc1ccccc1C(=O)O
96 | 181 to 182 | Cc1ccccc1NC(=NC#N)NC(NC(=O)Cc1ccc(Cl)cc1)C(C)(C)C (stereo not given)
97 | 70 to 72 | CCOC(=O)C(CCCCCN1C(=O)c2ccccc2C1=O)(NC(C)=O)C(=O)OCC
98 | 138 to 140 | COc1ccc(C(=O)c2cccc(CC(=O)O)c2)cc1
99 | 265 to 267 | CNc1nc(-c2cccc(NC(=O)c3cccc(O)c3)c2)c2cc(OC)c(OC)cc2n1
100 | 173 to 174 | CC1OC(n2cc(F)c(NC(=O)c3ccoc3)nc2=O)C(O)C1O (stereo not given)
